Experimental data published in patent publication US8044094B2, “Agents for preventing and treating disorders connected to impaired neurotransmission” (DSM IP Assets B.V., priority 2004, dated 2011).
One block for each compound: values may come before it.

Key:
mice = experiment: Marble burying test (anxiety like or obsessive compulsive behaviour); format: in vivo; details: for number of marbles covered by sawdust, mean ± s.e.m.: 25 marbles, 30-minute test
Protocol: The method applied here follows that described by Broekkamp et al. (1986). Mice (n=15 per treatment group) were individually placed in transparent plastic cages (33×21×18 cm) with 5 cm of sawdust on the floor and 25 marbles (diameter 1 cm) grouped in the centre of the cage. A second, up-turned, cage served as a lid. The number of marbles covered by sawdust (by at least two-thirds) was counted at the end of the 30-minute test period. Tests were performed by investigators blind to the drug treatment protocol.
Prior to testing, all test cages and marbles were “impregnated” by leaving 10 naive mice in each cage for 15 minutes.
7-Geranyl-oxycoumarin was evaluated at 3, 10 and 30 mg/kg, administered i.p. 30 minutes before the test, and compared with a vehicle control group. 7-Geranyl-oxycoumarin was dissolved in a saline solution containing 3 weight-% DMSO and 3 weight-% Tween® 80 (so called “vehicle”). To the control group the vehicle consisting of the saline solution containing 3 weight-% DMSO and 3 weight-% Tween® 80 was administered intraperitonally. Fluoxetine (32 mg/kg), administered under the same experimental conditions, was used as a reference substance.
Data were analysed by comparing treated groups with vehicle control using unpaired Student's t-tests.

[1] = biological target: T1, human serotonin re-uptake transporter (hSERT) (Homo sapiens, UniProt P31645); experiment: Labeled citalopram displacement from hSERT containing membranes (SPA); format: binding
Protocol: Membranes containing hSERT were prepared from the above cell line according to Galli et al, Journal of Experimental Biology 1995, 198, 2197-2212. 3 μg of membrane protein and 0.8 mg of wheat germ aglutinin coated SPA® (scintillation proximity assay) beads (Amersham Biosciences GE Healthcare, Slough, UK) per data point were mixed with radio-labeled (3H) citalopram (Amersham Biosciences GE Healthcare, Slough, UK) until a final concentration of 3.3 nM in 50 mM Tris-HCl, 300 mM NaCl (pH 7.4). After incubation for 18 hours at room temperature, the bound citalopram was quantified by liquid scintillation counting.
(§1) The effect of the coumarin ethers of formula I on the serotonin uptake and the citalopram binding was determined by its inclusion in the assay at a range of concentrations between 0.03 and 100 μM for 10 minutes prior to and during the addition of (3H) serotonin/citalopram. Serotonin uptake via the transporter and citalopram binding were both inhibited by the coumarin ethers of formula I in a dose dependent manner. The calculated inhibition constants Ki, derived from the measured IC50 using the Cheng—Prusoff equation (Y. C. Cheng, W. H. Prusoff, Biochem. Pharmacol. 1973, 22, p. 3099-3108), for inhibition of serotonin uptake and citalopram binding by coumarin ethers of the formula I are shown in Table 1.

[2] = biological target: T1, human serotonin re-uptake transporter (hSERT); experiment: Serotonin uptake inhibition in HEK-293 cells stably expressing hSERT; format: cell-based
Protocol: HEK-293 cells stably expressing the human serotonin re-uptake transporter (hSERT) were obtained from R. Blakely, Vanderbilt University, USA. The cells were routinely grown in Dulbeco's Modified Eagles Medium, purchased from Bioconcept, Allschwil, Switzerland containing 10% fetal calf serum, penicillin, streptomycin, L-glutamine and the antibiotic G418 and passaged by trypsinisation. 1 day prior to the assay cells were seeded in the above mentioned medium. Immediately prior to the assay the medium was replaced by Krebs Ringers bicarbonate buffer, purchased from Sigma Chemicals Ltd., supplemented with 35 μM pargyline, 2.2 mM CaCl2, 1 mM ascorbic acid and 5 mM N-2-hydroxyethylpiperazine-N′-2-ethanesulfonic acid (buffer called “Hepes”). Serotonin uptake into the cells was determined by addition of radio-labeled (3H) serotonin (Amersham Biosciences GE Healthcare, Slough, UK) to a concentration of 20 nM, and incubation for 30 minutes at room temperature. Following removal of unincorporated label by gentle washing three times with the above buffer, incorporated serotonin was quantified by liquid scintillation counting.
as §1

[3] = hSERT containing membranes, Ki from IC50 by Cheng-Prusoff, 3.3 nM (3H) citalopram, read-out: Inhibition constant Ki for tritiated citalopram displacement
[4] = transfected HEK-293 cells, Ki from IC50 by Cheng-Prusoff, 20 nM (3H) serotonin, read-out: Inhibition constant Ki for tritiated serotonin uptake

T1 sequence (P31645 whole entry): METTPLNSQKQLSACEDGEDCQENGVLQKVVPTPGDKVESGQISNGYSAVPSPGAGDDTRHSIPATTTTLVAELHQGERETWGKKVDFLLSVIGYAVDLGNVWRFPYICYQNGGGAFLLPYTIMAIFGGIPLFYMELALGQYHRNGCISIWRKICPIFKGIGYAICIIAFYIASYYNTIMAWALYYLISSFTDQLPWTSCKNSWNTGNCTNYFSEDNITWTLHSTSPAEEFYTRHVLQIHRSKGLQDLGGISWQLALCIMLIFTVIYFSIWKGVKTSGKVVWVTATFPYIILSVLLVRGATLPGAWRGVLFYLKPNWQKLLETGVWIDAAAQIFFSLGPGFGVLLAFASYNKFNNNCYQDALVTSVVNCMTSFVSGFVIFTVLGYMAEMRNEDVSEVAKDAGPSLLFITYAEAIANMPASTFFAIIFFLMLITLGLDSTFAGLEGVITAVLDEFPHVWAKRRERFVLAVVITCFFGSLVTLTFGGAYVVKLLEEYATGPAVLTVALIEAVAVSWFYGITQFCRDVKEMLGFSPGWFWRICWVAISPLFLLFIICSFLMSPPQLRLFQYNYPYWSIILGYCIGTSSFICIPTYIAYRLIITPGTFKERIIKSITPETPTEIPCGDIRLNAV

SMILES: CC(C)=CCC/C(C)=C/COc1ccc2ccc(=O)oc2c1 [7-Geranyloxycoumarin, 7-geranyloxycoumarin]
- number of marbles covered by sawdust, % change from control (mice; 3 mg/kg i.p. −30 minutes, 3 mg/kg): −27%
- number of marbles covered by sawdust, mean ± s.e.m. (mice; 3 mg/kg i.p. −30 minutes): 13.4 ± 2.0
- number of marbles covered by sawdust, % change from control (mice; 3 mg/kg i.p. −30 minutes, listed as 7-Geranyl-oxycoumauin, 3 mg/kg): −27%
- number of marbles covered by sawdust, % change from control (mice; 10 mg/kg i.p. −30 minutes, 10 mg/kg): −39%
- number of marbles covered by sawdust, mean ± s.e.m. (mice; 10 mg/kg i.p. −30 minutes): 11.3 ± 2.4
- number of marbles covered by sawdust, % change from control (mice; 10 mg/kg i.p. −30 minutes, listed as 7-Geranyl-oxycoumauin, 10 mg/kg): −39%
- number of marbles covered by sawdust, % change from control (mice; 30 mg/kg i.p. −30 minutes, 30 mg/kg): −74%
- number of marbles covered by sawdust, mean ± s.e.m. (mice; 30 mg/kg i.p. −30 minutes): 4.7 ± 1.5
- number of marbles covered by sawdust, % change from control (mice; 30 mg/kg i.p. −30 minutes, listed as 7-Geranyl-oxycoumauin, 30 mg/kg): −74%
- Ki [1, 3]: 24.2 µM
- Ki [2, 4]: 22.4 µM

SMILES: CNCCC(Oc1ccc(C(F)(F)F)cc1)c1ccccc1 (stereo not drawn) [fluoxetine, reference compound]
- number of marbles covered by sawdust, % change from control (mice; 32 mg/kg i.p. −30 min, 32 mg/kg): −98%
- number of marbles covered by sawdust, mean ± s.e.m. (mice; 32 mg/kg i.p. −30 min): 0.3 ± 0.2
- number of marbles covered by sawdust, % change from control (mice; 32 mg/kg i.p. −30 min, listed as Fluoxetine, 32 mg/kg): −98%

SMILES: CC(=O)OC(C)(C)[C@@H]1Cc2c(ccc3ccc(=O)oc23)O1 [(S)—O-Acetylcolumbianetin]
- Ki [1, 3]: 11.6 µM
- Ki [2, 4]: 21.7 µM

SMILES: CC1(C)C=Cc2cc3ccc(=O)oc3cc2O1 [Xanthyletin, xanthyletin]
- Ki [1, 3]: 11.9 µM
- Ki [2, 4]: 20.2 µM

SMILES: C/C(=C\COc1ccc2ccc(=O)oc2c1)C1=CC(=O)C(C)(C)O1 [Geiparvarin, geiparvarin]
- Ki [1]: 5.6 µM
- Ki [2]: 7 µM

SMILES: C/C(=C\COc1ccc2ccc(=O)oc2c1)CCC(=O)C(C)(C)O [6′-Dehydromarmin, 6′-dehydromarmin]
- Ki [1, 3]: 10.3 µM
- Ki [2, 4]: 12.1 µM

- Ki [1, 3]: 39.3 µM
- Ki [2, 4]: 9.8 µM
SMILES: COc1cc2oc(=O)ccc2cc1CC=C(C)C [Suberosin, suberosin]
